Results from patent publication US20260083865A1, “PROSTATE SPECIFIC MEMBRANE ANTIGEN (PSMA) LIGANDS AND USE THEREOF” (priority 2022, published 2026).
Numbered stars: 1 amine (or outer) side, 2 acyl side, 3 side chain; on linkers, the order of the positions; unused ones are H or OH. Bridge positions count the residues as written; N and C are the ends. Square brackets hold non-standard residues; d marks the D form. Peptide text beside a SMILES is read from it. * marks the point of attachment. TtdsdLys(DOTA)NH2 = NC(=O)[C@@H](CCCCNC(=O)CN1CCN(CC(=O)O)CCN(CC(=O)O)CCN(CC(=O)O)CC1)NC(=O)CCC(=O)NCCCOCCOCCOCCCN*; Acetyl(1-DOTA-4-piperidyl) = O=C(O)CN1CCN(CC(=O)O)CCN(CC(=O)N2CCC(CC(=O)*)CC2)CCN(CC(=O)O)CC1; X7 = O=C(O)CN1CCN(CC(=O)O)CCN(CC(=O)NC2CCN(CC(=O)*)CC2)CCN(CC(=O)O)CC1; DOTA = O=C(O)CN1CCN(CC(=O)O)CCN(CC(=O)*)CCN(CC(=O)O)CC1; Phe(4-Cl) = N[C@@H](Cc1ccc(Cl)cc1)C(=O)O; Propanoyl(3-SO2NH2) = NS(=O)(=O)CCC(=O)*; Arg(Me) = CNC(=N)NCCC[C@H](N)C(=O)O; Ethylenediamine = C(CN[*:2])N[*:1]; NMeF = CN[C@@H](Cc1ccccc1)C(=O)O; X1 = O=C(CC1CCN([*:1])CC1)[*:2]; Cit = NC(=O)NCCC[C@H](N)C(=O)O; Tle = CC(C)(C)[C@H](N)C(=O)O; Propanoyl(3-OH) = O=C(CCO)*; Api = NC1(C(=O)O)CCNCC1; Aib = CC(C)(N)C(=O)O

Tests used:
[1] = biological target: T1, Fc-fusion protein of human PSMA (hPSMA-Fc) (Homo sapiens, UniProt Q04609); assay: Surface plasmon resonance assay (Biacore T200, single cycle kinetic); format: binding; details: PSMA SPR assay, hPSMA-Fc, 25° C.; pKD category; read-out: pKD CAT (converted)
T1 construct: purchased Acro Biosystems PSA-H5264
Procedure, shortened: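 hPSMA-Fc was captured (~1000 RU) on an Fc-binding-peptide CM5 chip, and compounds were run in single cycle kinetic mode at 25° C in HBST with 0.1% DMSO. Double-blank-corrected sensorgrams were fitted to a 1:1 Langmuir model to give KD, reported as pKD.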

[2] = biological target: T2, PSMA-expressing C4-2 cells (Homo sapiens, UniProt Q04609); assay: FACS binding assay (competition with 50 nM PSM-0183); details: FACS binding, PSMA-expressing C4-2 cells; pIC50 category; read-out: pIC50 [C4-2] CAT (converted)
T2 construct: PSMA-expressing C4-2 cells (ATCC, Cat. No. CRL-3314) were cultured in RPMI-1640; host or cells: C4-2 cells
Procedure, shortened: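 C4-2 cells were incubated 1 h at 4 °C with 50 nM AF488-labelled peptide PSM-0183 plus increasing test compound concentrations, then washed twice in ice-cold buffer. Median fluorescence in the AF488 channel was read by flow cytometry. IC50/pIC50 was derived by 4PL fitting of MFI versus concentration.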

T2 sequence (Q04609 whole entry): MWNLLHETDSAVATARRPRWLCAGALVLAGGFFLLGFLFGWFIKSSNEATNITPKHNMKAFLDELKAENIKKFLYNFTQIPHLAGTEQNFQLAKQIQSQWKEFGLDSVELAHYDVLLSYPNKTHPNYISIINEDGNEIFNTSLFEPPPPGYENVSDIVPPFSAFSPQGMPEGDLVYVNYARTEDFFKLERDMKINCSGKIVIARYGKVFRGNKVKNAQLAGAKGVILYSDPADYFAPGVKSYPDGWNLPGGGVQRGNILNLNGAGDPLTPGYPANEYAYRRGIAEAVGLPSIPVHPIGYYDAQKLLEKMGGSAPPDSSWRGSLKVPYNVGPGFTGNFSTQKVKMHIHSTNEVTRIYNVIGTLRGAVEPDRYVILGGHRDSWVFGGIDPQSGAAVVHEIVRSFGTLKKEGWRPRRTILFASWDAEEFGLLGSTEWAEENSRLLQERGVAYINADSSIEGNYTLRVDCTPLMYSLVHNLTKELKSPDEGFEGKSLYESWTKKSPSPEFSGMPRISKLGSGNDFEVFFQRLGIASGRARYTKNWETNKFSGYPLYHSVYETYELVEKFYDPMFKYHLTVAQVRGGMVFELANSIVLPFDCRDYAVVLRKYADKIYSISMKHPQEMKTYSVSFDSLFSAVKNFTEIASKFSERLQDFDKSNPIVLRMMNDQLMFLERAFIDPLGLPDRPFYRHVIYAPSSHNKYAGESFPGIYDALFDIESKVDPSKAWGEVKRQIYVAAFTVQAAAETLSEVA
T1 sequence (Q04609 44-750 limits assumed): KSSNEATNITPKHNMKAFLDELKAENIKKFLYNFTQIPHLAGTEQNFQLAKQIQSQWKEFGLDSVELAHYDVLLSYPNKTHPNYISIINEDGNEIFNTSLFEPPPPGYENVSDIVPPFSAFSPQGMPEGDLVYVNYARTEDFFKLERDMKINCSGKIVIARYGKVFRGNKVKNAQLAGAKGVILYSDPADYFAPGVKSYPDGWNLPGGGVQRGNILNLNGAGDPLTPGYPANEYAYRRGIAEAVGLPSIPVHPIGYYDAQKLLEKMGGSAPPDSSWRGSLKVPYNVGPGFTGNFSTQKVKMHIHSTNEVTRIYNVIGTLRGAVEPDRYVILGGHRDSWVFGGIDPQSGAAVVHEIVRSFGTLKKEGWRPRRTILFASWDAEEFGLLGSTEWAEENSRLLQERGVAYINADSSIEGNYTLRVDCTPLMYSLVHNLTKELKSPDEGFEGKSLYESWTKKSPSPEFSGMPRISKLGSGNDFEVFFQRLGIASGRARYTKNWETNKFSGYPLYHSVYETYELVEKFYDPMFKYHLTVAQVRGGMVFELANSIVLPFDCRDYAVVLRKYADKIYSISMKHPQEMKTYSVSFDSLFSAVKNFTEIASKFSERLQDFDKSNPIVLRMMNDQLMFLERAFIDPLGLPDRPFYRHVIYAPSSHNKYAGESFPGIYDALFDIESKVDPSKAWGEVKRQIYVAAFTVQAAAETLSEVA

Compound | Kd [1] [nM] | IC50 [2] [nM]
CC(=O)N[C@H](C(=O)N[C@@H](C)C(=O)N(C)[C@@H](Cc1ccccc1)C(=O)N[C@H]1CSSC[C@@H](C(=O)N[C@H](C(=O)N[C@H](C(N)=O)[C@@H](C)O)C(C)(C)C)NC(=O)[C@H](CC(N)=O)NC(=O)C(C)(C)NC(=O)[C@H](CCCNC(=N)N)NC(=O)[C@H](CCCCN)NC1=O)[C@@H](C)O [PSM-0319, Ac-Thr-Ala-Nmf-[Cys-Lys-Arg-Aib-Asn-Cys]-Tle-Thr-NH2] (Ac-TA[NMeF]CKR[Aib]NC[Tle]T-NH2; disulfide 4-9) | 12.6 to 126 | < 200
CNC(=N)NCCC[C@@H]1NC(=O)[C@H](CCCCN)NC(=O)[C@@H](NC(=O)[C@H](Cc2ccc(Cl)cc2)NC(=O)C(C)(C)NC(C)=O)CSSC[C@@H](C(=O)N[C@H](C(=O)NCCNC(=O)CN2CCN(CC(=O)O)CCN(CC(=O)O)CCN(CC(=O)O)CC2)C(C)(C)C)NC(=O)[C@H](CC(N)=O)NC(=O)C(C)(C)NC1=O [PSM-0320, Ac-Aib-Pcf-[Cys-Lys-Arg(Me)-Aib-Asn-Cys]-Tle-en-DOTA] (Ac-[Aib][Phe(4-Cl)]CK[Arg(Me)][Aib]NC[Tle]-{Ethylenediamine-DOTA}; disulfide 3-8) | < 12.6 | < 200
CC(=O)N[C@H](C(=O)NC(C)(C)C(=O)N[C@@H](Cc1ccccc1)C(=O)N[C@H]1CSSC[C@@H](C(=O)N[C@H](C(=O)N[C@H](C(N)=O)[C@@H](C)O)C(C)(C)C)NC(=O)[C@H](CC(N)=O)NC(=O)C2(CCN(C(=O)CN3CCN(CC(=O)O)CCN(CC(=O)O)CCN(CC(=O)O)CC3)CC2)NC(=O)[C@H](CCCNC(=N)N)NC(=O)[C@H](CCCCN)NC1=O)[C@@H](C)O [PSM-0321, Ac-Thr-Aib-Phe-[Cys-Lys-Arg-Apc (DOTA)-Asn-Cys]-Tle-Thr-NH2] (Ac-T[Aib]FCKR[Api](DOTA)NC[Tle]T-NH2; disulfide 4-9) | < 12.6 | < 200
CC(=O)N[C@H](C(=O)NC(C)(C)C(=O)N[C@@H](Cc1ccc(Cl)cc1)C(=O)N[C@H]1CSSC[C@@H](C(=O)N[C@H](C(=O)N[C@H](C(=O)N[C@H](CCCCNC(=O)CC2CCN(C(=O)CN3CCN(CC(=O)O)CCN(CC(=O)O)CCN(CC(=O)O)CC3)CC2)C(N)=O)[C@@H](C)O)C(C)(C)C)NC(=O)[C@H](CC(N)=O)NC(=O)C(C)(C)NC(=O)[C@H](CCCNC(N)=O)NC(=O)[C@H](CCCCN)NC1=O)[C@@H](C)O [PSM-0322, Ac-Thr-Aib-Pcf-[Cys-Lys-Cit-Aib-Asn-Cys]-Tle-Thr-lys (DOTA-Cmp)-NH2] (Ac-T[Aib][Phe(4-Cl)]CK[Cit][Aib]NC[Tle]T[dK](Acetyl(1-DOTA-4-piperidyl))-NH2; disulfide 4-9) | 12.6 to 126 | < 200
CC(=O)N[C@@H](Cc1ccccc1)C(=O)N[C@H]1CSSC[C@@H](C(=O)N[C@@H](CC(C)C)C(=O)N[C@H](C(=O)N[C@@H](CC(=O)O)C(=O)NCCCOCCOCCOCCCNC(=O)CCC(=O)N[C@H](CCCCNC(=O)CN2CCN(CC(=O)O)CCN(CC(=O)O)CCN(CC(=O)O)CC2)C(N)=O)[C@@H](C)O)NC(=O)[C@H](CC(N)=O)NC(=O)[C@H](C)NC(=O)[C@H](CCCNC(=N)N)NC(=O)[C@H](CCCCN)NC1=O [PSM-0323, Ac-Phe-[Cys-Lys-Arg-Ala-Asn-Cys]-Lou-Thr-Asp-Ttds-lys(DOTA)-NH2] (Ac-FCKRANCLTD-{TtdsdLys(DOTA)NH2}; disulfide 2-7) | > 501 | > 3160
C[C@@H](O)[C@H](NC(=O)[C@@H](NC(=O)[C@@H]1CSSC[C@H](NC(=O)[C@H](Cc2ccc(Cl)cc2)NC(=O)C(C)(C)NC(=O)CCO)C(=O)N[C@@H](CCCCN)C(=O)N[C@@H](CCCNC(=N)N)C(=O)N[C@@H](CCCCNC(=O)CN2CCC(NC(=O)CN3CCN(CC(=O)O)CCN(CC(=O)O)CCN(CC(=O)O)CC3)CC2)C(=O)N[C@@H](CC(N)=O)C(=O)N1)C(C)(C)C)C(N)=O [PSM-0324, HPA-Aib-Pcf-[Cys-Lys-Arg-Lys(DOTA-APAc)-Asn-Cys]-Tle-Thr-NH2] ({Propanoyl(3-OH)}-[Aib][Phe(4-Cl)]CKRK(X7)NC[Tle]T-NH2; disulfide 3-8) | < 12.6 | < 200
C[C@@H](O)[C@H](NC(=O)[C@@H](NC(=O)[C@@H]1CSSC[C@H](NC(=O)[C@H](Cc2ccc(Cl)cc2)NC(=O)C(C)(C)NC(=O)CCS(N)(=O)=O)C(=O)N[C@@H](CCCCN)C(=O)N[C@@H](CCCNC(=N)N)C(=O)NC(C)(C)C(=O)N[C@@H](CC(N)=O)C(=O)N1)C(C)(C)C)C(=O)N[C@H](CCCCNC(=O)CN1CCN(CC(=O)O)CCN(CC(=O)O)CCN(CC(=O)O)CC1)C(N)=O [PSM-0328, SaPr-Aib-Pcf-[Cys-Lys-Arg-Aib-Asn-Cys]-Tle-Thr-lys(DOTA)-NH2] ({Propanoyl(3-SO2NH2)}-[Aib][Phe(4-Cl)]CKR[Aib]NC[Tle]T[dK](DOTA)-NH2; disulfide 3-8) | < 12.6 | < 200
CC(=O)N[C@H](C(=O)NC(C)(C)C(=O)N[C@@H](Cc1ccc(Cl)cc1)C(=O)N[C@H]1CSSC[C@@H](C(=O)N[C@H](C(=O)N[C@H](C(=O)N2CCC(CC(=O)N[C@H](CCCCNC(=O)CN3CCN(CC(=O)O)CCN(CC(=O)O)CCN(CC(=O)O)CC3)C(N)=O)CC2)[C@@H](C)O)C(C)(C)C)NC(=O)[C@H](CC(N)=O)NC(=O)C(C)(C)NC(=O)[C@H](CCCNC(N)=O)NC(=O)[C@H](CCCCN)NC1=O)[C@@H](C)O [PSM-0329, Ac-Thr-Aib-Pcf-[Cys-Lys-Cit-Aib-Asn-Cys]-Tle-Thr-Cmp-lys(DOTA)-NH2] (Ac-T[Aib][Phe(4-Cl)]CK[Cit][Aib]NC[Tle]T[X1][dK](DOTA)-NH2; disulfide 4-9) | 12.6 to 126 | < 200

Now from value to compound:

Kd [1] [nM] | IC50 [2] [nM] | Compound
< 12.6 | < 200 | CC(=O)N[C@H](C(=O)NC(C)(C)C(=O)N[C@@H](Cc1ccc(Cl)cc1)C(=O)N[C@H]1CSSC[C@@H](C(=O)N[C@H](C(=O)N[C@H](C(=O)N[C@@H](CC(=O)O)C(N)=O)[C@@H](C)O)C(C)(C)C)NC(=O)[C@H](CC(N)=O)NC(=O)C(C)(C)NC(=O)[C@H](CCCNC(=N)N)NC(=O)[C@H](CCCCN)NC1=O)[C@@H](C)O [PSM-0318, Ac-Thr-Aib-Pcf-[Cys-Lys-Arg-Aib-Asn-Cys]-Tle-Thr-Asp-NH2] (Ac-T[Aib][Phe(4-Cl)]CKR[Aib]NC[Tle]TD-NH2; disulfide 4-9)
12.6 to 126 | < 200 | CC(=O)N[C@H](C(=O)NC(C)(C)C(=O)N[C@@H](Cc1ccccc1)C(=O)N[C@H]1CSSC[C@@H](C(=O)N[C@H](C(=O)N[C@H](C(N)=O)[C@@H](C)O)C(C)(C)C)NC(=O)[C@H](CC(N)=O)NC(=O)[C@H](CCCCNC(=O)CN2CCN(CC(=O)O)CCN(CC(=O)O)CCN(CC(=O)O)CC2)NC(=O)[C@H](CCCNC(=N)N)NC(=O)[C@H](CCCCN)NC1=O)[C@@H](C)O [PSM-0326, Ac-Thr-Aib-Phe-[Cys-Lys-Arg-Lys(DOTA)-Asn-Cys]-Tle-Thr-NH2] (Ac-T[Aib]FCKRK(DOTA)NC[Tle]T-NH2; disulfide 4-9)
> 501 | > 3160 | CC(=O)N[C@H](C(=O)NC(C)(C)C(=O)N[C@@H](Cc1ccccc1)C(=O)N[C@@H]1CSSC[C@H](C(=O)N[C@H](C(=O)N[C@H](C(N)=O)[C@@H](C)O)C(C)(C)C)NC(=O)[C@H](CC(N)=O)NC(=O)C(C)(C)NC(=O)[C@H](CCCNC(=N)N)NC(=O)[C@H](CCCCN)NC1=O)[C@@H](C)O [PSM-0327, Ac-Thr-Aib-Phe-[cys-Lys-Arg-Aib-Asn-cys]-Tle-Thr-NH2] (Ac-T[Aib]F[dC]KR[Aib]N[dC][Tle]T-NH2; disulfide 4-9)
